US20250152585A1, “PHARMACEUTICAL COMPOUND” (Duke Street Bio Limited, priority 2022, published 2025)
Read-outs that look alike come from different tables or passages of the source.

Tests used:
[1] = biological target: T1, full length N-terminally FLAG-tagged PARP1 (Homo sapiens, UniProt P09874); assay: PARP1 probe displacement HTRF assay; conditions: for Selectivity: PARP1 over PARP2, ratio Kd (PARP2)/Kd (PARP1); for Kd: binned Kd
[2] = biological target: T2, N-terminally FLAG-tagged PARP2 (amino acids 1-583) (Homo sapiens, UniProt Q9UGN5); assay: PARP2 probe displacement HTRF assay; type: binding; conditions: binned Kd
T2 construct: N-terminally FLAG-tagged PARP2 (amino acids 1-583)
T2 sequence (Q9UGN5 whole entry, the tested form may be a part): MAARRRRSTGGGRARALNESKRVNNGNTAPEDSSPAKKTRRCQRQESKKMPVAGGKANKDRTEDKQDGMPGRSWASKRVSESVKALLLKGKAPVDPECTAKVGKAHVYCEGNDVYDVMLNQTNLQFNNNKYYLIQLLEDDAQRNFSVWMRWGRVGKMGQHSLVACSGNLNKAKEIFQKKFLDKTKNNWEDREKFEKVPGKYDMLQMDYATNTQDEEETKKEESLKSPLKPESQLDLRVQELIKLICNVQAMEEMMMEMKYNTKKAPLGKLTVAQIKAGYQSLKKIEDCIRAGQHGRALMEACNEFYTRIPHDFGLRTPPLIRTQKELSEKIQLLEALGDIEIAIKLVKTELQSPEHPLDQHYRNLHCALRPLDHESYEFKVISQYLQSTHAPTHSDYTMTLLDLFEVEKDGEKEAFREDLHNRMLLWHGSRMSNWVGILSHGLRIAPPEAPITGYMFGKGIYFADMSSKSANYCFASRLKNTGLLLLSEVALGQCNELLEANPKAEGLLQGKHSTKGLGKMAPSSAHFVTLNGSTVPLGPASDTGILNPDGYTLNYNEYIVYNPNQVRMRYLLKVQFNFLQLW
Method: Data analysis was performed identical as for PARP1.

[3] = biological target: T1, full length N-terminally FLAG-tagged PARP1; assay: PARP1 biochemical DELFIA assay (auto-PARylation); design: recombinant full length human N-terminally FLAG-tagged PARP1
[4] = read-out: PARP1 HTRF, probe displacement HTRF
[5] = binned IC50, biochemical auto-PARylation assay
[6] = read-out: PARP1 HTRF, PARP1 probe displacement HTRF
[7] = binned IC50, PARP1 biochemical DELFIA assay
[8] = PARP1 HTRF, PARP1 probe displacement HTRF

T1 sequence (P09874 whole entry, the tested form may be a part): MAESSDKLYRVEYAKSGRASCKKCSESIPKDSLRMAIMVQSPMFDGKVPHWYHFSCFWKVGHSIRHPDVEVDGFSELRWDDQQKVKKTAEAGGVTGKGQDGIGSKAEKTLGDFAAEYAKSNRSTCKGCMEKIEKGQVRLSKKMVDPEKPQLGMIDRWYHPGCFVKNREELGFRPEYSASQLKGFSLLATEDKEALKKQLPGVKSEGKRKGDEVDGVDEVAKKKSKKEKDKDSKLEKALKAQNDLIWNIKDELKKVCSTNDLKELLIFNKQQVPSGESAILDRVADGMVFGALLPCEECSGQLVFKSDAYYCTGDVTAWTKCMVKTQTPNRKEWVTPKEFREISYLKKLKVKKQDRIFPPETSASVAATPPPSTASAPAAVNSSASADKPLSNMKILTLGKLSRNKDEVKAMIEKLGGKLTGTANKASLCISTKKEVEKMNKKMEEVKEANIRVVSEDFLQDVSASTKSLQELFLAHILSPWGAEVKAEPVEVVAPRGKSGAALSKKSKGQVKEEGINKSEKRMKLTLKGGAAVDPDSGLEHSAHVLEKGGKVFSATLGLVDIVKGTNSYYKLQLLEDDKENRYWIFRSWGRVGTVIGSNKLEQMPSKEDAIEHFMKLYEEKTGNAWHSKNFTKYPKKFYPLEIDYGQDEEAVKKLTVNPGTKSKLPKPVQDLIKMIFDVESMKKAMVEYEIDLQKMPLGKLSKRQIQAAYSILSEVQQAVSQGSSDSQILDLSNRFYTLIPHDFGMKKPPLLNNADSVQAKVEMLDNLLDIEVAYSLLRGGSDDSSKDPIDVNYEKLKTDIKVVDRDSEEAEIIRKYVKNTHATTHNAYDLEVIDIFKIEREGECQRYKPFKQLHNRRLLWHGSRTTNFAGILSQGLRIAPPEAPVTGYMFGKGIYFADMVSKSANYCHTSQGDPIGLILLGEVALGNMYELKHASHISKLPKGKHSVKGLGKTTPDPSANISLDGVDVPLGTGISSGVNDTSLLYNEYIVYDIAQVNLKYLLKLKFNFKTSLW

Row | SMILES | Kd [1, 4] [nM] | Kd ([2]; probe displacement HTRF) [nM] | IC50 [3, 5] [nM] | Kd [1, 6] [nM] | Kd ([2]; PARP2 probe displacement HTRF) [nM] | IC50 [3, 7] [nM] | Kd [1, 8] [nM] | Selectivity ([1]; probe displacement HTRF)
1 | CCCc1ccc(C2CCN(C3CCN(c4ccc(C(=O)NC)nc4F)CC3)C2)[nH]c1=O (single isomer, unassigned) [Compound 269a] | < 10 | 1000 to 10000 | < 10 |  |  |  |  | +++ (+++ indicate a value of at least 100)
2 | CNC(=O)c1ccc(N2CCC(N3CCCC(c4nc5onc(C)c5c(=O)[nH]4)C3)CC2)cn1 (single isomer, unassigned) [Compound 159a] |  |  |  | > 10000 | > 10000 | > 10000 |  | − (− indicates a value of less than 10)
3 | CNC(=O)c1ccc(N2CCC(N3CCC(c4nc5ccccc5c(=O)[nH]4)C3)CC2)cn1 (racemic) [Compound 10rac] |  |  |  |  | 100 to 1000 | < 10 | < 10 | +++ (+++ indicate a value of at least 100)
4 | CNC(=O)c1cnc(N2CCC(N3CCC(c4nc5ccccc5c(=O)[nH]4)C3)CC2)cn1 (single isomer, unassigned) [Compound 96a] |  |  |  | 10 to 100 | 1000 to 10000 | 10 to 100 |  | + (+ indicates a value of 10 to less than 50)
5 | CNC(=O)c1ccc(N2CCC(N3CCC(c4nc5ncncc5c(=O)[nH]4)C3)CC2)cn1 (racemic) [Compound 335rac] | 100 to 1000 | > 10000 | 100 to 1000 |  |  |  |  | + (+ indicates a value of 10 to less than 50)
6 | CNC(=O)c1ccc(OCCN2CCCC(c3nc4ccccc4c(=O)[nH]3)C2)cn1 (single isomer, unassigned) [Compound 65a] |  |  |  | < 10 | 100 to 1000 | < 10 |  | +++ (+++ indicate a value of at least 100)
7 | CNC(=O)c1ccc(N2CCC(N3CCC(c4cc5c(c(C(F)(F)F)nn5C)c(=O)[nH]4)C3)CC2)c(F)n1 (single isomer, unassigned) [Compound 407b] | < 10 | < 10 | < 10 |  |  |  |  | + (+ indicates a value of 10 to less than 50)
8 | CNC(=O)c1ncc(N2CCC(N3CCC(c4cc5ccc(F)cc5c(=O)[nH]4)C3)CC2)c(C(F)(F)F)n1 (single isomer, unassigned) [Compound 266a] | < 10 | 100 to 1000 | < 10 |  |  |  |  | +++ (+++ indicate a value of at least 100)
9 | O=c1[nH]c(C2CCN(C3CCN(c4ccc(Cl)cc4)CC3)C2)nc2ccccc12 (single isomer, unassigned) [Compound 43b] |  |  |  | < 10 | 100 to 1000 | < 10 |  | + (+ indicates a value of 10 to less than 50)
10 | N#Cc1nc(C(=O)NC2CC2)ccc1N1CCC(N2CCC(c3cc4cccc(F)c4c(=O)[nH]3)C2)CC1 (single isomer, unassigned) [Compound 410a] | < 10 | 100 to 1000 | < 10 |  |  |  |  | +++ (+++ indicate a value of at least 100)
11 | CNC(=O)c1ccc(N2CCC(N3CCCC(c4nc5sc6c(c5c(=O)[nH]4)CCC6)C3)CC2)cn1 (single isomer, unassigned) [Compound 185a] |  |  |  | < 10 | 100 to 1000 | < 10 |  | +++ (+++ indicate a value of at least 100)
12 | CNC(=O)c1cc(C)c(N2CCC(N3CCC(c4nc5ccccc5c(=O)[nH]4)C3)CC2)c(C)n1 (single isomer, unassigned) [Compound 224b] | 100 to 1000 | 1000 to 10000 | 100 to 1000 |  |  |  |  | − (− indicates a value of less than 10)
13 | CNC(=O)c1ccc(N2CCC(N3CCCC(c4ccc(C5CC5)c(=O)[nH]4)C3)CC2)cn1 (single isomer, unassigned) [Compound 126a] |  |  |  | < 10 | 1000 to 10000 | < 10 |  | +++ (+++ indicate a value of at least 100)
14 | CNC(=O)c1cc(C)c(N2CCC(N3CCC(c4cc5ccccc5c(=O)[nH]4)C3)CC2)c(C)n1 (single isomer, unassigned) [Compound 205a] |  |  |  | 100 to 1000 | > 10000 | 100 to 1000 |  | + (+ indicates a value of 10 to less than 50)
15 | CNC(=O)c1ccc(N2CCC(N3CCC(O)(c4nc5ccccc5c(=O)[nH]4)C3)CC2)cn1 (single isomer, unassigned) [Compound 140a] |  |  |  | 10 to 100 | > 10000 | 100 to 1000 |  | ++ (++ indicates a value of 50 to less than 100)
16 | CNC(=O)c1ccc(N2CCC(N3CCCC(c4ncc(CC(F)(F)F)c(=O)[nH]4)C3)CC2)cn1 (single isomer, unassigned) [Compound 212b] |  |  |  | > 10000 | > 10000 | > 10000 |  | − (− indicates a value of less than 10)
17 | O=C(NCC(F)F)c1ccc(N2CCC(N3CCC(c4cc5cccc(F)c5c(=O)[nH]4)C3)CC2)c(F)n1 (single isomer, unassigned) [Compound 390b] | < 10 | 10 to 100 | < 10 |  |  |  |  | ++ (++ indicates a value of 50 to less than 100)
18 | CCc1ccc(C2CCN(C3CCN(c4cnc(C(=O)NC)cc4C)CC3)C2)[nH]c1=O (single isomer, unassigned) [Compound 217a] |  |  |  | 100 to 1000 | > 10000 | 100 to 1000 |  | − (− indicates a value of less than 10)
19 | NC(=O)c1ccc(N2CCC(N3CCC(c4nc5ccccc5c(=O)[nH]4)C3)CC2)cn1 (single isomer, unassigned) [Compound 123b] |  |  |  | < 10 | 1000 to 10000 | < 10 |  | +++ (+++ indicate a value of at least 100)
20 | CCc1ccc(C2CCN(C3CCN(c4cnc(C(=O)NC5CC5)c(F)c4)CC3)C2)[nH]c1=O (single isomer, unassigned) [Compound 408b] | 10 to 100 | 1000 to 10000 | 10 to 100 |  |  |  |  | + (+ indicates a value of 10 to less than 50)
21 | CNC(=O)c1ccc(N2CCC(N3CCC(c4nc5c(c(=O)[nH]4)NCCN5)C3)CC2)cn1 (racemic) [Compound 226rac] | 10 to 100 | > 10000 | 10 to 100 |  |  |  |  | ++ (++ indicates a value of 50 to less than 100)
22 | CC(=O)Nc1ccc(N2CCC(N3CCC(c4cc5ccccc5c(=O)[nH]4)C3)CC2)cc1 (single isomer, unassigned) [Compound 289a] | 100 to 1000 | 1000 to 10000 | 100 to 1000 |  |  |  |  | − (− indicates a value of less than 10)

Further lines, with some results ahead:

Row | Kd [1, 4] [nM] | Kd ([2]; probe displacement HTRF) [nM] | IC50 [3, 5] [nM] | Kd [1, 6] [nM] | Kd ([2]; PARP2 probe displacement HTRF) [nM] | IC50 [3, 7] [nM] | Kd [1, 8] [nM] | SMILES | Selectivity ([1]; probe displacement HTRF)
23 |  |  |  | 10 to 100 | > 10000 | 10 to 100 |  | CNC(=O)c1ccc(N2CCC(N3CCC(c4cnc(C)c(=O)[nH]4)C3)CC2)cn1 (racemic) [Compound 127rac] | +++ (+++ indicate a value of at least 100)
24 |  |  |  | < 10 | 100 to 1000 | 10 to 100 |  | CNC(=O)c1ccc(N2CCC(N3CCC(c4nc5ccc(Cl)cc5c(=O)[nH]4)C3)CC2)cn1 (single isomer, unassigned) [Compound 68b] | + (+ indicates a value of 10 to less than 50)
25 |  |  |  | < 10 | 100 to 1000 | < 10 |  | CNC(=O)c1ccc(N2CCC(N3CCC(c4cc5c(C(F)(F)F)cccc5c(=O)[nH]4)C3)CC2)cn1 (single isomer, unassigned) [Compound 167b] | +++ (+++ indicate a value of at least 100)
26 |  |  |  | < 10 | 1000 to 10000 | < 10 |  | CNC(=O)c1ccc(N2CCC(N3CCC(c4cc5c(F)ccc(F)c5c(=O)[nH]4)C3)CC2)cn1 (single isomer, unassigned) [Compound 180a] | +++ (+++ indicate a value of at least 100)
27 |  |  |  | 10 to 100 | 100 to 1000 | 10 to 100 |  | CNC(=O)c1ncc(N2CCC(N3CCC(c4cc5cccc(F)c5c(=O)[nH]4)C3)CC2)cn1 (racemic) [Compound 215rac] | − (− indicates a value of less than 10)
28 | < 10 | 100 to 1000 | < 10 |  |  |  |  | CNC(=O)c1ncc(N2CCC(N3CCC(c4cc5cccc(F)c5c(=O)[nH]4)C3)CC2)cn1 (racemic) [Compound 234rac] | +++ (+++ indicate a value of at least 100)
29 |  |  |  | 10 to 100 | > 10000 | 10 to 100 |  | CNC(=O)c1ccc(N2CCC(N3CCC(c4cc5ncccc5c(=O)[nH]4)C3)CC2)cn1 (single isomer, unassigned) [Compound 218a] | +++ (+++ indicate a value of at least 100)
30 |  |  |  | < 10 | 100 to 1000 | < 10 |  | CNC(=O)c1ccc(N2CCC(N3CCC(c4cc5ccccc5c(=O)[nH]4)C3)CC2)cn1 (single isomer, unassigned) [Compound 91b] | +++ (+++ indicate a value of at least 100)
31 |  |  |  |  | 100 to 1000 | < 10 | < 10 | CNC(=O)c1ccc(N2CCC(N3CCC(c4nc5c(Cl)cccc5c(=O)[nH]4)C3)CC2)cn1 (single isomer, unassigned) [Compound 52b, 5-(4-(3-(8-chloro-4-oxo-3,4-dihydroquinazolin-2-yl)pyrrolidin-1-yl)piperidin-1-yl)-N-methylpicolinamide] | +++ (+++ indicate a value of at least 100)
32 | 1000 to 10000 | > 10000 | 1000 to 10000 |  |  |  |  | CNC(=O)c1ccc(N2CCC(N3CCC(c4cc5cccc(OC)c5c(=O)[nH]4)C3)CC2)cn1 (single isomer, unassigned) [Compound 249a] | − (− indicates a value of less than 10)
